Legend:
Assay type in all cases: in vivo
[1] = system: Fusarium oxysporum f. sp. lycopersici; experiment: Example 4: soil drench of tomato seedlings challenged with Fusarium oxysporum; settings: 28 DAI, biologicals 4 oz, mefenoxam 1 oz/100 gal, mean of 28 plants
Experimental: (§1) Tomato, Lycopersicon esculentum, var esculentum ‘Beefsteak’, seedlings were subjected to the soil drench treatments set forth in Table 13. Except for the non-inoculated controls, each plant was treated with inoculum of the pathogen F. oxysporum f. sp. lycopersici to induce disease.
(§2) Tomatoes were started in 128-cell flats from seeds in a general purpose, peat-based growing medium. Plants were watered with a 100 ppm solution of 20-20-20 water-soluble plant food (Jack's Classic). At 4-5 days after planting, the seedlings were drenched with the biological materials mixed in water. Seedlings not receiving treatments at this time were treated only with the blank formulation (without Trichoderma).
(§3) Inoculum of F. oxysporum was grown on sterilized rice grains for 7 days at 24-26° C. The rice was uniformly blended into growing medium at a rate of 5% (weight: weight). Seven day old tomato seedlings were transplanted into 4 inch pots that contained the pathogen inoculum on rice. A set of untreated control seedlings were transplanted into pots containing the growing medium plus uninoculated rice. […]
(§4) Plants were maintained in a growing room at 20-24° C. under a 12 hour light: dark cycle. […] The material was dried in an oven at 60° C. until completely dry (approximately 24 hours) and the weights recorded. […] Significant differences between treatment means were determined using Tukey's HSD test at P=0.05.

Phytophthora cinnamomi [2] = experiment: Example 1: soil treatment of boxwoods inoculated with P. cinnamomi; settings: boxwood; for Marketability: 1(dead)-5(excellent) Scale: G41 8 oz, mefenoxam 1 oz/100 gal, mean of 10
Experimental: (§5) Except for the non-inoculated controls, each plant was treated with P. cinnamomi inoculum to induce disease. Boxwood plants were obtained from a local nursery and placed into a 6 inch diameter pot containing pine bark: peat (3:1 volume:volume) potting media. The medium was amended with 14 lb of 17-7-12 Osmocote fertilizer per cubic yard of mix.
(§6) Inoculum of P. cinnamomi was grown on sterilized rice grains for 14 days at 24-26° C. prior to inoculation. To treat the plants with the pathogen inoculum, four holes were punched equidistant around the root ball, and four colonized rice grains were inserted in each hole. Each of the test materials was applied at the specified rate to the soil surface, using a 2.5 pint hand held sprayer. The chemical standard, mefenoxam (Subdue®), was applied to the soil surface 24 hours after the plant roots were inoculated with P. cinnamomi inoculum. T22 and G41 were applied to the soil surface 72 hours prior to root inoculation with P. cinnamomi.
(§7) A marketability rating was determined for each plant at one day after inoculation (DAI) with P. cinnamomi, 22 days DAI, and 54 days DAI. Using the following scale, each plant was rated by three researchers and the mean value was determined for each plant: • 1: Dead plants • 2: Poor, unsalable (severe chlorosis and poor top growth) • 3: Moderate, salable (slight chlorosis and/or stunting; plant growth between 2 and 4) • 4: Salable (few individual leaves with chlorosis, green foliage; plant growth between 3 and 5) • 5: Excellent health, salable (no chlorosis; optimum top growth)
(§8) At 1, 22, and 54 DAI, plant height was measured from the crown to the highest point of the plant. Dry root weight and fresh shoot weight were determined at 22 and 54 DAI.
(§9) At 22 DAI, a subset of plants from each treatment were removed and examined. Plants were removed from the pots, and excess soil was carefully brushed from the roots. Above ground portions (shoots) were cut away from the below ground portions and dried in an oven. Dry root weights and fresh shoot weights were recorded. At 54 DAI, the experiment was terminated; the remaining plants were treated as above to determine dry root and shoot weights. Data were subjected to analysis of variance and treatment means were separated by Student-Newman-Keuls test at P=0.05.

Rhizoctonia solani = experiment: Example 7: soil drench of tomato seedlings challenged with Rhizoctonia solani; settings: R. solani, 23 DAI, biologicals 4 oz, mefenoxam 1 oz/100 gal, mean of 28 plants
Experimental: as §1, with “13, except that there were no untreated control plants.” for “13.”, “R. solani” for “F. oxysporum f. sp. lycopersici”
Tomato seedlings were grown and treated as described above in Example 2. Sterile rice was inoculated with agar plugs from PDA Petri plates containing growing colonies of R. solani at a rate of one colonized PDA plate/500 g rice. Rice was incubated for 10 days at 24-26° C. Infested rice was uniformly blended into the growing medium at a rate of 5% (weight: weight).
Tomato seedlings were transplanted into 4 inch pots that contained the pathogen inoculum on rice. The untreated check plants became contaminated with an unknown disease and were not included in the analysis. A set of seedlings was drenched with the label rate of mefenoxam to serve as the chemical standard and a set of treated control seedlings was transplanted into medium containing the pathogen.
Plants were maintained in a growing room at 20-24° C. under a 12 hour light: dark cycle. Plants were watered with a nutrient solution as described above. […] The material was dried in an oven at 60° C. until completely dry (approximately 24 hours) and the weights recorded. Data were analyzed as described in Example 2, above.

Pythium aphanidermatum = experiment: Example 6: cucumber seed coating against Pythium aphanidermatum damping-off; settings: P. aphanidermatum inoculum, greenhouse
Experimental: Cucumber, Cucumis sativus, var Marketmore 76 seeds were coated with T harzianum and/or T. virens, or mefenoxam as described by Pill et al. (Pill et. al., Scientia Horticulturae 121:54-62 (2009), which is hereby incorporated by reference in its entirety). Seeds were planted into flats with or without P. aphanidermatum inoculum. The experiment was conducted in a greenhouse with natural lighting and temperature settings of 25/22° C. (day/night). The numbers of seedlings emerged were recorded daily until there was no increase for two consecutive days. Diseased plants were recorded as either pre- (no seedling emergence) or post-emergent (shoot lodging).

Pythium irregulare [3] = experiment: Example 8 Experiment 1: soil drench of cucumber seedlings challenged with Pythium irregulare (T22 and G21); settings: 28 DAI, biologicals 4 oz, mefenoxam 1 oz/100 gal, mean of 14 plants
Experimental: Except for the non-inoculated controls, each plant was treated with inoculum of the pathogen Pythium irregulare to induce disease.
(§10) Seedlings were grown and treated as described in Example 4. Sterile rice was inoculated with a suspension of P. irregulare at the rate of one colonized PDA Petri plate/1 liter of sterile water. Rice was incubated for 24 hours at 24-26° C. Infested rice was uniformly blended into the growing medium at a rate of 5% (weight: weight).
(§11) Cucumber seedlings were transplanted into 4 inch pots that contained the pathogen inoculum on rice. A set of untreated control seedlings were transplanted into pots containing the growing medium plus rice, but no pathogen. A set of seedlings was drenched with the label rate of mefenoxam to serve as the chemical standard and a set of treated control seedlings was transplanted into medium containing the pathogen.
Plants were maintained in a growing room at 20-24° C. under a 12 hour light: dark cycle. At 28 DAI, the experiment was terminated, and the plants were each separated into two parts: root (below ground) and shoot (above ground). The material was dried in an oven at 60° C. until completely dry (approximately 24 hours) and the weights recorded. Data were analyzed as described in Example 4.

Phytophthora cinnamomi [4] = experiment: Example 2: spray treatment of boxwoods challenged with Phytophthora cinnamomi; settings: boxwood, P. cinnamomi; for Dry Root Weight / Fresh Shoot Weight: mean of 5; for Marketability: 1(dead)-5(excellent) Scale: G41 4 oz, T22 4 oz, mefenoxam 1 oz/100 gal; for Marketability: 1(dead)-5(excellent) Scale / Height: mean of 10
Experimental: as §5, §6, §7, §8, §9
Except for the non-inoculated controls, each plant was treated with P. cinnamomi inoculum to induce disease. The methodology for this test was identical to that described in Example 1.

[5] = system: Fusarium oxysporum f. sp. lycopersici; experiment: Example 8 Experiment 2: soil drench of tomato seedlings challenged with Fusarium oxysporum (T12 and G41); settings: 28 DAI, biologicals 4 oz, mefenoxam 1 oz/100 gal, mean of 14 plants
Experimental: as §1, §2, §3
as §4, with “P=0.05. […]” for “P=0.05.”

Phytophthora nicotianae = experiment: Example 3: spray treatment of azaleas challenged with Phytophthora nicotianae; settings: azalea, P. nicotianae; for Dry Root Weight / Fresh Shoot Weight: mean of 5; for Marketability: 1(dead)-5(excellent) Scale: G41 4 oz, T22 4 oz, mefenoxam 1 oz/100 gal; for Marketability: 1(dead)-5(excellent) Scale / Height: mean of 10
Experimental: as §6, §7, §8, §9
Except for the non-inoculated controls, each plant was treated with P. nicotianae inoculum to induce disease. The methodology for this test was identical to that described in Example 1.

Pythium irregulare [6] = experiment: Example 5: soil drench of tomato seedlings challenged with Pythium irregulare; settings: 21 DAI, biologicals 4 oz, mefenoxam 1 oz/100 gal, mean of 28 plants
Experimental: Tomato, Lycopersicon esculentum, var esculentum ‘Beefsteak’, seedlings were subjected to the soil drench treatments set forth in Table 13. Except for the non-inoculated controls, each plant was treated with inoculum of the pathogen Pythium irregulare to induce disease.
as §10, with “Tomato seedlings” for “Seedlings”, “described above” for “described”, “2.” for “4.”, “1” for “one”
as §11, with “Tomato” for “Cucumber”
Plants were maintained in a growing room at 20-24° C. under a 12 hour light: dark cycle. Plants were watered with a nutrient solution as described above. […] The material was dried in an oven until completely dry (approximately 24 hours) and the weights recorded.

Structure (SMILES): COCC(=O)N(c1c(C)cccc1C)[C@H](C)C(=O)OC [Mefenoxam, mefenoxam]
- Dry Root Weight [1]: 0.12 bc g
- Dry Shoot Weight [1]: 0.90 bc g
- Marketability: 1(dead)-5(excellent) Scale (Phytophthora cinnamomi [2]; 5/26, T22 4 oz): 5 a
- Height (Phytophthora cinnamomi [2]; 5/26, mean of 10): 13.8 a cm
- Marketability: 1(dead)-5(excellent) Scale (Phytophthora cinnamomi [2]; 6/21, T22 4 oz): 4.4 a
- Dry Root Weight (Phytophthora cinnamomi [2]; 6/21, mean of 5): 16.7 a g
- Fresh Shoot Weight (Phytophthora cinnamomi [2]; 6/21, mean of 5): 86.2 a g
- Height (Phytophthora cinnamomi [2]; 6/21, mean of 10): 39.7 a cm
- Marketability: 1(dead)-5(excellent) Scale (Phytophthora cinnamomi [2]; 7/10, T22 4 oz): 4.7 a
- Dry Root Weight (Phytophthora cinnamomi [2]; 7/10, mean of 5): 30.1 a g
- Fresh Shoot Weight (Phytophthora cinnamomi [2]; 7/10, mean of 5): 108.3 a g
- Height (Phytophthora cinnamomi [2]; 7/10, mean of 10): 39.8 a cm
- Dry Root Weight (Rhizoctonia solani): 0.06 b g
- Dry Shoot Weight (Rhizoctonia solani): 0.42 c g
- Percent Damping-Off, Pre-emergence (Pythium aphanidermatum): 4.6 bc Percent
- Percent Damping-Off, Total (Pythium aphanidermatum): 9.3 c Percent
- Dry Root Weight (Pythium irregulare [3]): 0.10 abc g
- Dry Shoot Weight (Pythium irregulare [3]): 0.66 ab g
- Dry Root Weight (Phytophthora cinnamomi [4]; 1/13): 96.0 ab g
- Fresh Shoot Weight (Phytophthora cinnamomi [4]; 1/13): 81.6 a g
- Dry Root Weight (Phytophthora cinnamomi [4]; 12/12): 76.4 a g
- Fresh Shoot Weight (Phytophthora cinnamomi [4]; 12/12): 64.8 a g
- Marketability: 1(dead)-5(excellent) Scale (Phytophthora cinnamomi [4]; Dec. 12, 2004): 4.6 a
- Height (Phytophthora cinnamomi [4]; Dec. 12, 2004): 34.6 ab cm
- Marketability: 1(dead)-5(excellent) Scale (Phytophthora cinnamomi [4]; Jan. 13, 2005): 4.7 ab
- Height (Phytophthora cinnamomi [4]; Jan. 13, 2005): 36.7 ab cm
- Marketability: 1(dead)-5(excellent) Scale (Phytophthora cinnamomi [4]; Nov. 21, 2004): 5.0 a
- Height (Phytophthora cinnamomi [4]; Nov. 21, 2004): 13.3 ab cm
- Dry Root Weight [5]: 0.03 b g
- Dry Shoot Weight [5]: 0.17 c g
- Dry Root Weight (Phytophthora nicotianae; 6/21): 44.2 a g
- Fresh Shoot Weight (Phytophthora nicotianae; 6/21): 49.0 ab g
- Dry Root Weight (Phytophthora nicotianae; 7/10): 55.5 ab g
- Fresh Shoot Weight (Phytophthora nicotianae; 7/10): 70.3 ab g
- Marketability: 1(dead)-5(excellent) Scale (Phytophthora nicotianae; Dec. 17, 2004): 4.4 ab
- Height (Phytophthora nicotianae; Dec. 17, 2004): 27.5 ab cm
- Marketability: 1(dead)-5(excellent) Scale (Phytophthora nicotianae; Jan. 6, 2005): 4.4 ab
- Height (Phytophthora nicotianae; Jan. 6, 2005): 35.5 ab cm
- Marketability: 1(dead)-5(excellent) Scale (Phytophthora nicotianae; Nov. 25, 2004): 5 a
- Height (Phytophthora nicotianae; Nov. 25, 2004): 13.7 a cm
- Dry Root Weight (Pythium irregulare [6]): 0.04 c g
- Dry Shoot Weight (Pythium irregulare [6]): 0.28 g·days

Reference: US9681668B2, “Control of plant diseases and enhancing plant growth using a combination of a Trichoderma virens species and a rhizosphere competent Trichoderma harzianum species” (priority 2008, dated 2017)
